Key:
[1] = test system: patients with chronic schizophrenia; assay: PANSS responders (reduction in PANSS total score), Clinical Study Four; assay type: in vivo, human; conditions: FAS, LOCF
Protocol: METHODOLOGY: This study was a multinational, multicenter, randomized, double-blind, parallel-group, placebo-controlled, fixed-dose study. The study consisted of a 3- to 6-day antipsychotic-free run-in period, after which patients were randomised to 6 months of double-blind treatment with fixed doses of bifeprunox (20 mg/day (BX20) or 30 mg/day (BX30)) or placebo (PBO). Patients allocated to the BX groups were up-titrated from 0.25 mg/day over 7 days (BX20) or 8 days (BX30), and then continued on these doses for the remainder of the study. […] At predetermined time points, blood samples were obtained for drug concentration analysis of BX and its major metabolites (3′- and 4′-sulfate conjugates of BX), and pharmaco-economic assessments were performed.
CLINICAL STUDY FOUR: The proportion of patients with a ≧25%, ≧35%, ≧45%, or ≧55% reduction in PANSS total score relative to baseline at each visit (PANSS responders) is shown by LOCF (FIG. 4).

[2] = Pooled metabolic analysis, 6-month study: glucose
Description: OBJECTIVE: To examine the metabolic effects of bifeprunox in patients with acute and stable schizophrenia.
METHODS: Metabolic data was compiled from one 6-month and four 6-week studies (i.e., a treatment period) of bifeprunox in patients with stable and acute schizophrenia, respectively. In the 6-month study, patients received bifeprunox (n=331) or placebo (PBO) (n=166). […] Metabolic evaluations included body weight, body mass index (BMI), plasma glucose and lipid profiles. Fasting glucose and lipid values were assessed in one 6-week study and in the 6-month study. Triglyceride:HDL ratio (TG:HDL) was calculated as a marker of insulin resistance. No statistical analyses were performed; only descriptive statistics are presented.

[3] = Food effect on bifeprunox PK (standard high-fat meal)
Description: The objective of this study is to assess the pharmacokinetics (PK) of bifeprunox. The PK of bifeprunox in healthy subjects were investigated based on a pooled analysis of PK parameters from 21 clinical pharmacology studies. The pooled analysis included PK profiles after single and multiple doses to 132 and 399 subjects, respectively, and explored the potential effects of age, gender, body weight, and race. In addition, PK in patients with schizophrenia were investigated using a population PK approach based on samples from 376 patients in phase II studies and 434 patients in phase III studies.

serum proteins = assay: Binding to serum proteins
[4] = test system: adult subjects with schizophrenia; assay: CGI Improvement score, Clinical Study Two; assay type: in vivo, human; conditions: LOCF
Protocol: Rating scale assessments were performed weekly, except for week 5, to measure the change from baseline to endpoint of the PANSS total score. Other assessments included: PANSS positive symptom subscale score, PANSS negative symptom subscale score, PANSS general pschopathology subscale score, BPRS total score, BPRS psychosis score, the CGI-S score, the CGI-I score, responder rates based on the PANSS total score, and the Calgary Depression Scale for Schizophrenia (CDSS). […]
Subjects who completed this study had the option to continue in the long-term. […] Risperidone-treated subjects were titrated from 2 mg to 6 mg daily over a three-day period and were subsequently maintained at 6 mg/day for the remainder of the treatment period. […] Blood samples were also obtained at Screening/Baseline, Week 3, and Week 6 for clinical laboratory assessments.

With `O=c1[nH]c2cccc(N3CCN(Cc4cccc(-c5ccccc5)c4)CC3)c2o1` [Bifeprunox, 7-[4-([1,1′-biphenyl]-3-ylmethyl)-1-piperazinyl]-2(3H)-benzoxazolone] the “proportion of patients with at least a 25% reduction in PANSS total score versus PBO” value ([1]; listed as BX20) was “statistically significantly larger than that in the PBO group from Week 9 onwards”, the “proportion of patients with at least a 25% reduction in PANSS total score versus PBO” value ([1]; listed as BX30) was “statistically significantly larger than that in the PBO group at Month 5 only” and the “change in mean fasting glucose at endpoint” value ([2]; 6-month study) was “+4.32 mg/dL”. For the same compound, the “change in non-fasting glucose at endpoint” value ([2]; bifeprunox total group) was “+1.16 mg/dL”, the “increase in AUC with a standard high-fat meal” value ([3]; 40 mg dose) was 29% and the “increase in Cmax with a standard high-fat meal” value ([3]; 40 mg dose) was 10%. For the same compound, the Tmax ([3]; human, plasma, oral, 40 mg) was 1.5 h, the “bound to serum proteins” value (serum proteins) was “approximately 99%” and the “CGI Improvement Minimally Improved, %” value ([4]; 30 mg, Week 2) was “(33%)”. For the same compound, the “CGI Improvement Minimally Worse, %” value ([4]; 30 mg, Week 2) was “(8%)”, the “CGI Improvement Much Improved, %” value ([4]; 30 mg, Week 2) was “(29%)” and the “CGI Improvement Much Worse, %” value ([4]; 30 mg, Week 2) was “(3%)”. The “CGI Improvement No Change, %” value ([4]; 30 mg, Week 2) was “(24%)”, the “CGI Improvement Very Much Improved, %” value ([4]; 30 mg, Week 2) was “(3%)” and the “CGI Improvement Very Much Worse, %” value ([4]; 30 mg, Week 2) was “(<1%)”. The “CGI Improvement Minimally Improved, %” value ([4]; 30 mg, Week 3) was “(28%)”, the “CGI Improvement Minimally Worse, %” value ([4]; 30 mg, Week 3) was “(7%)” and the “CGI Improvement Much Improved, %” value ([4]; 30 mg, Week 3) was “(27%)”. For the same compound, the “CGI Improvement Much Worse, %” value ([4]; 30 mg, Week 3) was “(4%)”, the “CGI Improvement No Change, %” value ([4]; 30 mg, Week 3) was “(26%)” and the “CGI Improvement Very Much Improved, %” value ([4]; 30 mg, Week 3) was “(6%)”. For the same compound, the “CGI Improvement Very Much Worse, %” value ([4]; 30 mg, Week 3) was “(<1%)”, the “CGI Improvement Minimally Improved, %” value ([4]; 30 mg, Week 4) was “(26%)” and the “CGI Improvement Minimally Worse, %” value ([4]; 30 mg, Week 4) was “(9%)”. For the same compound, the “CGI Improvement Much Improved, %” value ([4]; 30 mg, Week 4) was “(26%)”, the “CGI Improvement Much Worse, %” value ([4]; 30 mg, Week 4) was “(4%)” and the “CGI Improvement No Change, %” value ([4]; 30 mg, Week 4) was “(24%)”. The “CGI Improvement Very Much Improved, %” value ([4]; 30 mg, Week 4) was “(9%)”, the “CGI Improvement Very Much Worse, %” value ([4]; 30 mg, Week 4) was “(<1%)” and the “CGI Improvement Minimally Improved, %” value ([4]; 30 mg, Week 6/Endpoint) was “(21%)”. The “CGI Improvement Minimally Worse, %” value ([4]; 30 mg, Week 6/Endpoint) was “(11%)”, the “CGI Improvement Much Improved, %” value ([4]; 30 mg, Week 6/Endpoint) was “(28%)” and the “CGI Improvement Much Worse, %” value ([4]; 30 mg, Week 6/Endpoint) was “(6%)”. For the same compound, the “CGI Improvement No Change, %” value ([4]; 30 mg, Week 6/Endpoint) was “(24%)”, the “CGI Improvement Very Much Improved, %” value ([4]; 30 mg, Week 6/Endpoint) was “(9%)” and the “CGI Improvement Very Much Worse, %” value ([4]; 30 mg, Week 6/Endpoint) was “(<1%)”. The “CGI Improvement Minimally Improved, %” value ([4]; 40 mg, Week 2) was “(37%)”, the “CGI Improvement Minimally Worse, %” value ([4]; 40 mg, Week 2) was “(7%)” and the “CGI Improvement Much Improved, %” value ([4]; 40 mg, Week 2) was “(19%)”. The “CGI Improvement Much Worse, %” value ([4]; 40 mg, Week 2) was “(11%)”, the “CGI Improvement No Change, %” value ([4]; 40 mg, Week 2) was “(22%)” and the “CGI Improvement Very Much Improved, %” value ([4]; 40 mg, Week 2) was “(4%.)”. For the same compound, the “CGI Improvement Minimally Improved, %” value ([4]; 40 mg, Week 3) was “(30%)”, the “CGI Improvement Minimally Worse, %” value ([4]; 40 mg, Week 3) was “(6%)” and the “CGI Improvement Much Improved, %” value ([4]; 40 mg, Week 3) was “(21%)”. The “CGI Improvement Much Worse, %” value ([4]; 40 mg, Week 3) was “(14%)”, the “CGI Improvement No Change, %” value ([4]; 40 mg, Week 3) was “(23%)” and the “CGI Improvement Very Much Improved, %” value ([4]; 40 mg, Week 3) was “(5%)”. The “CGI Improvement Minimally Improved, %” value ([4]; 40 mg, Week 4) was “(29%)”, the “CGI Improvement Minimally Worse, %” value ([4]; 40 mg, Week 4) was “(9%)” and the “CGI Improvement Much Improved, %” value ([4]; 40 mg, Week 4) was “(20%)”. The “CGI Improvement Much Worse, %” value ([4]; 40 mg, Week 4) was “(14%)”, the “CGI Improvement No Change, %” value ([4]; 40 mg, Week 4) was “(21%)” and the “CGI Improvement Very Much Improved, %” value ([4]; 40 mg, Week 4) was “(7%)”. The “CGI Improvement Minimally Improved, %” value ([4]; 40 mg, Week 6/Endpoint) was “(26%)”, the “CGI Improvement Minimally Worse, %” value ([4]; 40 mg, Week 6/Endpoint) was “(11%)” and the “CGI Improvement Much Improved, %” value ([4]; 40 mg, Week 6/Endpoint) was “(19%)”. For the same compound, the “CGI Improvement Much Worse, %” value ([4]; 40 mg, Week 6/Endpoint) was “(15%)”, the “CGI Improvement No Change, %” value ([4]; 40 mg, Week 6/Endpoint) was “(20%)” and the “CGI Improvement Very Much Improved, %” value ([4]; 40 mg, Week 6/Endpoint) was “(9%)”.
With `Cc1nc2n(c(=O)c1CCN1CCC(c3noc4cc(F)ccc34)CC1)CCCC2` [Risperidone, risperidone, reference compound] the “CGI Improvement Minimally Improved, %” value ([4]; 6 mg, Week 2) was “(40%)”, the “CGI Improvement Minimally Worse, %” value ([4]; 6 mg, Week 2) was “(5%)” and the “CGI Improvement Much Improved, %” value ([4]; 6 mg, Week 2) was “(30%)”. For the same compound, the “CGI Improvement Much Worse, %” value ([4]; 6 mg, Week 2) was “(3%)”, the “CGI Improvement No Change, %” value ([4]; 6 mg, Week 2) was “(16%)” and the “CGI Improvement Very Much Improved, %” value ([4]; 6 mg, Week 2) was “(5%)”. The “CGI Improvement Minimally Improved, %” value ([4]; 6 mg, Week 3) was “(33%)”, the “CGI Improvement Minimally Worse, %” value ([4]; 6 mg, Week 3) was “(5%)” and the “CGI Improvement Much Improved, %” value ([4]; 6 mg, Week 3) was “(36%)”. The “CGI Improvement Much Worse, %” value ([4]; 6 mg, Week 3) was “(5%)”, the “CGI Improvement No Change, %” value ([4]; 6 mg, Week 3) was “(13%)” and the “CGI Improvement Very Much Improved, %” value ([4]; 6 mg, Week 3) was “(9%)”. For the same compound, the “CGI Improvement Minimally Improved, %” value ([4]; 6 mg, Week 4) was “(25%)”, the “CGI Improvement Minimally Worse, %” value ([4]; 6 mg, Week 4) was “(5%)” and the “CGI Improvement Much Improved, %” value ([4]; 6 mg, Week 4) was “(38%)”. For the same compound, the “CGI Improvement Much Worse, %” value ([4]; 6 mg, Week 4) was “(5%)”, the “CGI Improvement No Change, %” value ([4]; 6 mg, Week 4) was “(14%)” and the “CGI Improvement Very Much Improved, %” value ([4]; 6 mg, Week 4) was “(13%)”. The “CGI Improvement Minimally Improved, %” value ([4]; 6 mg, Week 6/Endpoint) was “(23%)”, the “CGI Improvement Minimally Worse, %” value ([4]; 6 mg, Week 6/Endpoint) was “(5%)” and the “CGI Improvement Much Improved, %” value ([4]; 6 mg, Week 6/Endpoint) was “(36%)”. For the same compound, the “CGI Improvement Much Worse, %” value ([4]; 6 mg, Week 6/Endpoint) was “(5%)”, the “CGI Improvement No Change, %” value ([4]; 6 mg, Week 6/Endpoint) was “(15%)” and the “CGI Improvement Very Much Improved, %” value ([4]; 6 mg, Week 6/Endpoint) was “(16%)”. For the same compound, the “CGI Improvement Very Much Worse, %” value ([4]; 6 mg, Week 6/Endpoint) was “(<1%)”.
